{"source": "BindingDB's records for doi:10.1021/jm00147a007", "about": "(1985)", "note": "pIC50: −log10 of the molar value."}
{"molecular_target": "Aminopeptidase N (Oryctolagus cuniculus) (UniProt P15541)", "sequence (P15541 whole entry, looked up)": "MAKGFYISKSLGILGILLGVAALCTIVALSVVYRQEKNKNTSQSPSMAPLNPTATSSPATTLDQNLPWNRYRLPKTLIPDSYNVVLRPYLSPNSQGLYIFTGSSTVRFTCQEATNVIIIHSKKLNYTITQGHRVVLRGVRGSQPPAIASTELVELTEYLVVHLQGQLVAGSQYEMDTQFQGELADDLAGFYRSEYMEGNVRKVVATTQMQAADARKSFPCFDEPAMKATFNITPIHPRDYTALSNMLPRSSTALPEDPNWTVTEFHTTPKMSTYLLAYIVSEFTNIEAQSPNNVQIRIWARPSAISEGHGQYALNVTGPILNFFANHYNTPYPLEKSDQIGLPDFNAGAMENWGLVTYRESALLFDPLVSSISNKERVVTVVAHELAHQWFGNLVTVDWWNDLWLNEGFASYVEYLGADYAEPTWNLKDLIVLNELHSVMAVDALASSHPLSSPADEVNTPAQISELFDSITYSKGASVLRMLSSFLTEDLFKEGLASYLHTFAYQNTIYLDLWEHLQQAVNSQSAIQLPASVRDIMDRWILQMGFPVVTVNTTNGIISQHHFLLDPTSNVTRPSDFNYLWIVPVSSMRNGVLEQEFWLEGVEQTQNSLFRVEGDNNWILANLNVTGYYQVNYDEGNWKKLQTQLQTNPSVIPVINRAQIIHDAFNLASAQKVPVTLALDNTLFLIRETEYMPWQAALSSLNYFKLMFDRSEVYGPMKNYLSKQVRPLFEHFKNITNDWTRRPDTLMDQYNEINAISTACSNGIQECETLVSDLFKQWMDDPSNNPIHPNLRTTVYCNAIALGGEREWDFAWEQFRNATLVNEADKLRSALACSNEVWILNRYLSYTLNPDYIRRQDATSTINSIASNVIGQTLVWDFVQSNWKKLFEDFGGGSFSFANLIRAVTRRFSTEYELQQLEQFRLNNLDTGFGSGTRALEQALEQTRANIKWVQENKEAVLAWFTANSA", "experiment": "Inhibitory activity against rabbit kidney aminopeptidase using 10 nM of [3H]Leu-enkephalin as substrate"}
{"smiles": "O=CN(O)CC(Cc1ccccc1)C(=O)NCC(=O)O", "note": "(centres undefined) [[2-Benzyl-3-(formyl-hydroxy-amino)-propionylamino]-acetic acid]", "pIC50": 6.07}
{"smiles": "O=CN(O)C(Cc1ccccc1)C(=O)NCC(=O)O", "note": "(centres undefined) [[2-(Formyl-hydroxy-amino)-3-phenyl-propionylamino]-acetic acid]", "pIC50": 4.60}
{"smiles": "O=C(O)CNC(=O)C(Cc1ccccc1)C(=O)NO", "note": "(racemic)", "pIC50": 4.00}
{"smiles": "C[C@H](NC(=O)[C@@H](CC(=O)NO)Cc1ccccc1)C(=O)O", "note": "(racemic) [(RS)-2-(2-Benzyl-3-hydroxycarbamoyl-propionylamino)-propionic acid]", "pIC50": 6.15}
